According to PubChem BioAssay AID330 (DTP/NCI, 2004):
“And” between values parts separate entries of the source, which are not always exact repeats. Equal entries are not always repeated. Inconclusive results and toxic doses are left out.

Test system: P388 leukemia ip, CD2F1 mice, survival T/C
Assay: NCI In Vivo Anticancer Drug Screen. Data for tumor model P388 Leukemia (intraperitoneal) in CD2F1 (CDF1) mice
Conditions: endpoint: median survival time, higher = longer survival
How it was run: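 Mice carrying the transplanted tumor received test compound or vehicle. Survival was recorded in each group, and the value is the treated-group measurement divided by that of the vehicle-treated control group.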

[1] = dose: 50.0 mg/kg/injection, schedule: Q01DX005 (ip), vehicle: saline with Tween-80
[2] = dose: 100.0 mg/kg/injection, schedule: Q01DX005 (ip), vehicle: saline with Tween-80
[3] = dose: 200.0 mg/kg/injection, schedule: Q01DX005 (ip), vehicle: saline with Tween-80
[4] = dose: 100.0 mg/kg/injection, schedule: Q01DX009 (ip), vehicle: Klucel (hydroxypropylcellulose) (HPC)
[5] = dose: 200.0 mg/kg/injection, schedule: Q01DX009 (ip), vehicle: Klucel (hydroxypropylcellulose) (HPC)
[6] = dose: 50.0 mg/kg/injection, schedule: Q01DX009 (ip), vehicle: saline with Tween-80
[7] = dose: 100.0 mg/kg/injection, schedule: Q01DX009 (ip), vehicle: saline with Tween-80
[8] = dose: 200.0 mg/kg/injection, schedule: Q01DX009 (ip), vehicle: saline with Tween-80

O=C1c2c(O)ccc(O)c2C(=O)c2c(NCCCCCO)ccc(NCCCCCO)c21
T/C (dose: 20.0 mg/kg/injection, schedule: Q01DX009 (ip), vehicle: Klucel (hydroxypropylcellulose) (HPC)): 94 % of control | T/C (dose: 40.0 mg/kg/injection, schedule: Q01DX009 (ip), vehicle: Klucel (hydroxypropylcellulose) (HPC)): 89 % of control | T/C (dose: 80.0 mg/kg/injection, schedule: Q01DX009 (ip), vehicle: Klucel (hydroxypropylcellulose) (HPC)): 93 % of control | T/C (dose: 160.0 mg/kg/injection, schedule: Q01DX009 (ip), vehicle: Klucel (hydroxypropylcellulose) (HPC)): 93 % of control | T/C (dose: 320.0 mg/kg/injection, schedule: Q01DX009 (ip), vehicle: Klucel (hydroxypropylcellulose) (HPC)): 111 % of control

O=C(NCCCCC(NC(=O)c1ccccc1)C(=O)O)OCc1ccccc1 (stereo unspecified)
T/C [1]: 96 % of control | T/C [2]: 100 % of control | T/C [3]: 92 % of control

CN1C(=O)CC(NC(=O)CNC(=O)c2ccccc2)C1=O (stereo unspecified)
T/C (dose: 60.0 mg/kg/injection, schedule: Q01DX005 (ip), vehicle: saline with Tween-80): 97 % of control | T/C (dose: 120.0 mg/kg/injection, schedule: Q01DX005 (ip), vehicle: saline with Tween-80): 94 % of control | T/C (dose: 240.0 mg/kg/injection, schedule: Q01DX005 (ip), vehicle: saline with Tween-80): 90 % of control

CC[C@@]1(O)C[C@H](OC2CCC(OC3CC(OC(C)=O)C(OC(C)=O)C(C)O3)C(C)O2)c2c(O)c3c(c(O)c2[C@H]1C(=O)OC)C(=O)c1cccc(O)c1C3=O (stereo partly specified)
T/C (dose: 3.13 mg/kg/injection, schedule: Q04DX003 (ip), vehicle: distilled water + Tween-80): 100 % of control | T/C (dose: 6.25 mg/kg/injection, schedule: Q04DX003 (ip), vehicle: distilled water + Tween-80): 100 % of control | T/C (dose: 12.5 mg/kg/injection, schedule: Q04DX003 (ip), vehicle: distilled water + Tween-80): 101 % of control | T/C (dose: 25.0 mg/kg/injection, schedule: Q04DX003 (ip), vehicle: distilled water + Tween-80): 105 % of control | T/C (dose: 50.0 mg/kg/injection, schedule: Q04DX003 (ip), vehicle: distilled water + Tween-80): 103 % of control

O=C(O)c1cc(-c2ccc(Cl)c(Cl)c2)nc2cc3ccccc3cc12
T/C (dose: 50.0 mg/kg/injection, schedule: Q01DX009 (ip), vehicle: Klucel (hydroxypropylcellulose) (HPC)): 110 % of control | T/C [4]: 106 % of control | T/C [5]: 95 % of control

CCOC(=O)Cc1ccccn1
T/C [4]: 109 % of control | T/C [5]: 110 % of control | T/C (dose: 400.0 mg/kg/injection, schedule: Q01DX009 (ip), vehicle: Klucel (hydroxypropylcellulose) (HPC)): 119 % of control

CC(C)N=C1NS(=O)(=O)c2ccccc21
T/C [1]: 114 % of control | T/C [2]: 97 % of control | T/C [3]: 108 % of control

O=C1CCC(c2nnc(COc3ccc(Cl)cc3)o2)N1Cc1ccccc1 (stereo unspecified)
T/C (dose: 100.0 mg/kg/injection, schedule: Q01DX001 (ip), vehicle: saline with Tween-80): 99 % of control | T/C (dose: 200.0 mg/kg/injection, schedule: Q01DX001 (ip), vehicle: saline with Tween-80): 102 % of control | T/C (dose: 400.0 mg/kg/injection, schedule: Q01DX001 (ip), vehicle: saline with Tween-80): 98 % of control

O=c1c2c([nH]c3ccccc13)CSC2
T/C [6]: 100 % of control | T/C [7]: 100 % of control | T/C [8]: 97 % of control | T/C (dose: 400.0 mg/kg/injection, schedule: Q01DX009 (ip), vehicle: saline with Tween-80): 100 % of control

O=C1CC2C=CC2C1 (stereo unspecified)
T/C (dose: 6.25 mg/kg/injection, schedule: Q01DX009 (ip), vehicle: saline): 113 % of control | T/C (dose: 12.5 mg/kg/injection, schedule: Q01DX009 (ip), vehicle: saline): 103 % of control | T/C (dose: 25.0 mg/kg/injection, schedule: Q01DX009 (ip), vehicle: saline): 103 % of control | T/C [8]: 95 % of control

Cc1c(NC(=S)Nc2ccccc2)c(=O)n(-c2ccccc2)n1C
T/C [1]: 93 % of control | T/C [2]: 93 % of control | T/C [3]: 89 % of control

CC(C)CC(NC(=O)CNC(=O)/C=C/c1ccco1)C(N)=O (stereo unspecified)
T/C [1]: 106 % of control | T/C [2]: 102 % of control | T/C [3]: 90 % of control

CCOC(=O)/C(C#N)=C(\C)c1ccccc1
T/C [6]: 99 % of control

CCOC(=O)C(CC)C(O)(c1ccc2c(c1)OCO2)c1cc(OC)c(OC)c(OC)c1 (stereo unspecified)
T/C (dose: 50.0 mg/kg/injection, schedule: Q01DX005 (ip), vehicle: Klucel (hydroxypropylcellulose) (HPC)): 96 % of control | T/C (dose: 100.0 mg/kg/injection, schedule: Q01DX005 (ip), vehicle: Klucel (hydroxypropylcellulose) (HPC)): 94 % of control | T/C (dose: 200.0 mg/kg/injection, schedule: Q01DX005 (ip), vehicle: Klucel (hydroxypropylcellulose) (HPC)): 93 % of control

O=C(/C=C/c1ccc(OCc2ccccc2)cc1)c1ccccc1[N+](=O)[O-]
T/C [6]: 104 % of control | T/C [7]: 101 % of control | T/C [8]: 92 % of control

NC(Cc1ccc(N(CCCl)CCCl)cc1)C(=O)O (stereo unspecified)
T/C (dose: 3.12 mg/kg/injection, schedule: Q01DX009 (ip), vehicle: Klucel (hydroxypropylcellulose) (HPC)): 285 % of control and 309 % of control | T/C (dose: 6.25 mg/kg/injection, schedule: Q01DX009 (ip), vehicle: Klucel (hydroxypropylcellulose) (HPC)): 99 % of control and 105 % of control and 117 % of control
